# Reference: patent US8133849B2, “Herbicidal compounds” (Syngenta Limited, priority 2007, dated 2012)
# Columns and labels:
# Assay in all cases: Example B2 herbicidal action, post-emergence, pots in glasshouse, damage score 0-10
# Format in all cases: in vivo
# Conditions in all cases: application post-emergence, rate 1000 g/ha, evaluated after 13 days
# Setaria faberi = tested on: Setaria faberi
# Procedure: (§1) Seeds of a variety of test species were sown in standard soil in pots. After 8 days cultivation (post-emergence) under controlled conditions in a glasshouse (at 24/16° C., day/night; 14 hours light; 65% humidity), the plants were sprayed with an aqueous spray solution derived from the formulation of the technical active ingredient in acetone/water (50:50) solution containing 0.5% Tween 20 (polyoxyethelyene sorbitan monolaurate, CAS RN 9005-64-5). The test plants were then grown in a glasshouse under controlled conditions in a glasshouse (at 24/16° C., day/night; 14 hours light; 65% humidity) and watered twice daily. After 13 days, the test was evaluated (10=total damage to plant; 0=no damage to plant).
# Echinochloa crus-galli = tested on: Echinochloa crus-galli
# Procedure: as §1
# Amaranthus retroflexus = tested on: Amaranthus retroflexus
# Procedure: as §1
# Solanum nigrum = tested on: Solanum nigrum
# Procedure: as §1
# Ipomea hederaceae = tested on: Ipomea hederaceae
# Procedure: as §1
Structure (SMILES),SETFA damage score (10=total damage to plant; 0=no damage to plant) (Setaria faberi),ECHCG damage score (10=total damage to plant; 0=no damage to plant) (Echinochloa crus-galli),AMARE damage score (10=total damage to plant; 0=no damage to plant) (Amaranthus retroflexus),SOLNI damage score (10=total damage to plant; 0=no damage to plant) (Solanum nigrum),IPOHE damage score (10=total damage to plant; 0=no damage to plant) (Ipomea hederaceae)
C=CCN1c2nccnc2C(O)=C(c2cc(Cl)ccc2C(F)(F)F)S1(=O)=O [Compound D54],3,3,2,7,4
CC(C)(C)C(=O)OC1=C(c2cccc(Cl)c2Cl)S(=O)(=O)N(CC(F)F)c2nccnc21 [Compound C100],2,2,4,9,6
O=S1(=O)C(c2c(Br)cccc2Br)=C(O)c2nccnc2N1CC(F)F [Compound D28],8,8,10,9,8
CCSC(=O)OC1=C(c2c(Cl)ccc(Cl)c2Cl)S(=O)(=O)N(CC(F)F)c2nccnc21 [Compound C37],6,8,8,9,9
CCN1c2nccnc2C(O)=C(c2cccc(Cl)c2Cl)S1(=O)=O [Compound D49],1,1,4,8,6
CC(C)(C)C(=O)OC1=C(c2ccccc2I)S(=O)(=O)N(CC(F)F)c2nccnc21 [Compound C81],7,8,10,10,10
CCN1c2nccnc2C(O)=C(c2ccc(Cl)cc2C(F)(F)F)S1(=O)=O [Compound D10],2,4,9,10,9
CCSC(=O)OC1=C(c2cccc(Cl)c2Cl)S(=O)(=O)N(CC(F)F)c2nccnc21 [Compound C101],2,5,4,10,8
O=S1(=O)C(c2cc(C(F)(F)F)ccc2C(F)(F)F)=C(O)c2nccnc2N1CC(F)F [Compound D22],6,7,10,10,10
O=S1(=O)C(c2ccc(Cl)cc2Cl)=C(O)c2nccnc2N1CC(F)(F)F [Compound D51],1,2,7,8,7
CC(C)(C)C(=O)OC1=C(c2cc(I)ccc2Cl)S(=O)(=O)N(CC(F)F)c2nccnc21 [Compound C55],2,2,7,7,8
"O=S1(=O)C(c2c(F)ccc(Cl)c2Cl)=C(O)c2nccnc2N1CC(F)F [Compound D9, 3-(2,3-dichloro-6-fluoro-phenyl)-1-(2,2-difluoro-ethyl)-2,2-dioxo-1,2-dihydro-2-λ-6-thia-1,5,8-triaza-naphthalen-4-ol]",2,4,9,10,10
